From publication PMC7614683, “A small molecule PI3Kα activator for cardioprotection and neuroregeneration” (Nature, 2023)
Several values for one entry are separate records, joined by “and”; a condition that tells them apart may be missing. Identical values can stand only once.

Legend:
rat sciatic nerve = experiment: pAkt generation in exposed rat sciatic nerves; assay type: in vivo; details: direct injection or bathing, 1938 5 μM, 30 min
Procedure: To assess if 1938 could induce pAkt generation in exposed rat sciatic nerves, adult male Sprague Dawley rats (>250g; n=2) were anaesthetised using isoflurane, the left sciatic nerve was exposed and injected with 2 μl vehicle (sterile dH2O) or 1938 (5 μM in sterile dH2O). Meanwhile the right sciatic nerve was exposed and bathed in 250 μl of vehicle (sterile dH2O) or 1938 (5 μM in sterile dH2O). Each animal received one vehicle and one compound treatment. The treatments were left on for 30 min prior to washing the bathed nerves with sterile PBS and culling via sodium pentobarbital injection according to local regulations. Nerves were then harvested, washed in fresh 4°C PBS and stored in a fresh vial before snap freezing in liquid nitrogen. Frozen sciatic nerves were homogenised in RIPA buffer supplemented with protease and phosphatase inhibitors using a mortar and pestle homogeniser. The subsequent crude lysates were centrifuged at 10,000xg for 10 min at 4°C, the supernatant harvested and stored at -80°C prior to automated western blot (Wes) analysis for pAkt and controls (Extended Data Fig. 9a; bottom panel).

isolated rat hearts = experiment: Langendorff ex vivo perfused rat heart model of ischaemia reperfusion injury; details: 1938 5 μM or insulin 1 μM; Fig 5d, single hearts
Procedure: The Langendorff ex vivo perfused rat heart was used as an experimental model of IRI[79]. The animal experiments were conducted within the terms of the UK Animals (Scientific Procedures) Act 1986, under Project Licence number PPL 70/8556 (Protection of the Ischaemic and Reperfused Myocardium). All procedures conform to the guidelines from Directive 2010/63/EU of the European Parliament on the protection of animals used for scientific purposes. Male Sprague–Dawley rats were bred at a central animal unit in University College London and used at a weight of 250–350 g, and randomly assigned to experimental groups. Rats were anaesthetised by intraperitoneal injection of sodium pentobarbitone (60 mg/kg) (Animalcare, York, UK). […] Analysis of infarct size (IS) as a proportion of area at risk (AAR) was calculated via planimetry using imageJ software (version 1.45, National Institutes of Health, USA).
Alternatively, after 15 min reperfusion, perfusion was stopped and hearts were freeze-clamped in liquid nitrogen and frozen at -80°C. […] Protein content was determined by bicinchoninic acid (BCA) assay (Sigma-Aldrich, Gillingham, UK). […] The next day, membranes were probed with IRDye fluorescence-tagged secondary antibodies (#926-32211 and #926-68020; LI-COR Biosciences, Ltd. UK) and imaged and quantified using the Odyssey imaging system (Image Studio Lite Ver 5.2; LI-COR Biosciences, Cambridge, UK).

Row | Molecule | pAKT in exposed sciatic nerves (rat sciatic nerve) | Western blot pAkt in langendorff (isolated rat hearts)
1 | CCN1CCN(c2ccc(Nc3cc(Nc4cccc5c4N(C(C)=O)CC5)ccn3)cc2)CC1 [Compound 1938] | pAKT induction | –
2 | insulin: insulin, canonical activator of PI3Kα, used as positive control | – | 3.259 and 3.657
